Experimental data reported in article PMC10641818, “Development of First-in-Class Dual Sirt2/HDAC6 Inhibitors as Molecular Tools for Dual Inhibition of Tubulin Deacetylation” (Journal of Medicinal Chemistry, 2023).

Experiments:
[1] = molecular target: T1, Sirt2 (Homo sapiens, UniProt Q8IXJ6); assay: Cell-based NanoBRET assay for Sirt2 target engagement in HEK293T cells; details: tracer SirReal-TAMRA 2 μM, read-out: Cellular Sirt2 target engagement IC50 (NanoBRET)
T1 construct: expressed in transfected cells; host or cells: HEK293T
T1 sequence (Q8IXJ6 1-389): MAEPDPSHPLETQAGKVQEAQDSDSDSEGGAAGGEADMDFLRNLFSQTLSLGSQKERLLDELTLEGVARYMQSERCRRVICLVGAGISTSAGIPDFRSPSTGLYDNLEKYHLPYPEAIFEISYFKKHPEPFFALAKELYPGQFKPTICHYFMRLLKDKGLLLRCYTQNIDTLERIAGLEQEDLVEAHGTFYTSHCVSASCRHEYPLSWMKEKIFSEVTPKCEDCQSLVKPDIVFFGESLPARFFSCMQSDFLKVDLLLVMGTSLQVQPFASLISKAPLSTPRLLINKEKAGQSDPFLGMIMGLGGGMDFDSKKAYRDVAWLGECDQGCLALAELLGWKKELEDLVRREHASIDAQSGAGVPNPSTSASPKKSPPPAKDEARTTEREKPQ

[2] = molecular target: HDAC9 (Homo sapiens, UniProt Q9UKV0); assay: HDAC9 continuous fluorescence deacylation assay; format: biochemical
[3] = molecular target: T2, HDAC3/NcoR2 (Homo sapiens, UniProt O15379); assay: HDAC3 in vitro deacetylation assay (ZMAL); format: biochemical; details: mean ± SD
T2 construct: purchased BPS Bioscience 50003

[4] = molecular target: T3, HDAC7 (Homo sapiens, UniProt Q8WUI4); assay: HDAC7 continuous fluorescence deacylation assay; format: biochemical
T3 sequence (Q8WUI4 1-952): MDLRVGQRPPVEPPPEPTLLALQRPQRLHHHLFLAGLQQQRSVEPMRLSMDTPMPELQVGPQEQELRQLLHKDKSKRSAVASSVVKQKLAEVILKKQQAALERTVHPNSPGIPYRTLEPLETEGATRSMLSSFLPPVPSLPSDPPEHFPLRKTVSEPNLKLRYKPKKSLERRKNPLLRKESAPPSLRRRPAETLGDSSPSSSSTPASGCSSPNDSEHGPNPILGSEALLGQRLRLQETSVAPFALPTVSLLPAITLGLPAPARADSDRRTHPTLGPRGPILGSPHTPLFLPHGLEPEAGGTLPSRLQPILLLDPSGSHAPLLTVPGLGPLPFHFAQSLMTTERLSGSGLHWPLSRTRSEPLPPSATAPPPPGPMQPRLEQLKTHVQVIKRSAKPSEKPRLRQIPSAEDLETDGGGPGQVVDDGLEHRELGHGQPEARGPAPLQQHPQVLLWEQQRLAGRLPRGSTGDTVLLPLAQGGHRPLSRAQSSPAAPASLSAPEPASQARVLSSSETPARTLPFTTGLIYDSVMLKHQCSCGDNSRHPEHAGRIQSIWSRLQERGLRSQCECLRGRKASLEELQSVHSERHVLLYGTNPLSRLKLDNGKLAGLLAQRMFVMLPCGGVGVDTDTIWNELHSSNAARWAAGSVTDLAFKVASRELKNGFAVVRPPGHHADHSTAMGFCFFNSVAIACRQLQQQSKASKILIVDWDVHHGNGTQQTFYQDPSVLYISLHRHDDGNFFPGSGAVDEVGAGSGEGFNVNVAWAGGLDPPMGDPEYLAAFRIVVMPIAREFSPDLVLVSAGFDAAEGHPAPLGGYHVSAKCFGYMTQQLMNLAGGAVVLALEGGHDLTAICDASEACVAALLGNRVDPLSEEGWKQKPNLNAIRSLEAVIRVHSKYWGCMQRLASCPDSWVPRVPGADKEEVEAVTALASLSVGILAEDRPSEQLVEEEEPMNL

[5] = molecular target: HDAC8 (Homo sapiens, UniProt Q9BY41); assay: HDAC8 in vitro deacylation assay (ZMTFAL); format: biochemical
[6] = molecular target: T4, HDAC10 (Homo sapiens, UniProt Q969S8); assay: HDAC10 continuous fluorescence deacylation assay; format: biochemical
T4 sequence (Q969S8 1-669): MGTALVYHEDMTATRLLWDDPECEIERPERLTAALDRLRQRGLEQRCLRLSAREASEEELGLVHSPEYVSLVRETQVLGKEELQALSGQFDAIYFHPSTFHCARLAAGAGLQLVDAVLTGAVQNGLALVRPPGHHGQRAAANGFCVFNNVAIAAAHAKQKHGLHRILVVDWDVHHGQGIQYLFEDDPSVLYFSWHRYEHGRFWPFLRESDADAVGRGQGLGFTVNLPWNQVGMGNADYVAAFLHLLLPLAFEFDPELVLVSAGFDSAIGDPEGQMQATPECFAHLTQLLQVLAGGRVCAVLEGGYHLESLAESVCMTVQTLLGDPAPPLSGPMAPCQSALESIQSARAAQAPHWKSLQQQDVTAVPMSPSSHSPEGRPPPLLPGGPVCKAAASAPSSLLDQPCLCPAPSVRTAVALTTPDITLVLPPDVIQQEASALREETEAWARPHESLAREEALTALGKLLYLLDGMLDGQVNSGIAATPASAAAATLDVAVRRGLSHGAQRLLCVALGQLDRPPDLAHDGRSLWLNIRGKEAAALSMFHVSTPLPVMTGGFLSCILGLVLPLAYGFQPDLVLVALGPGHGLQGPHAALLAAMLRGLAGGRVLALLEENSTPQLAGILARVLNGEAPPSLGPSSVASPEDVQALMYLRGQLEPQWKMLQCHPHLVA

[7] = molecular target: HDAC4 (Homo sapiens, UniProt P56524); assay: HDAC4 continuous fluorescence deacylation assay; format: biochemical
[8] = molecular target: Sirt6 (Homo sapiens, UniProt Q8N6T7); assay: Sirt6 in vitro deacylation HPLC assay; format: biochemical
[9] = molecular target: T5, HDAC2 (Homo sapiens, UniProt Q92769); assay: HDAC2 in vitro deacetylation assay (ZMAL); format: biochemical; details: mean ± SD
T5 construct: purchased BPS Bioscience 50052
T5 sequence (Q92769 whole entry): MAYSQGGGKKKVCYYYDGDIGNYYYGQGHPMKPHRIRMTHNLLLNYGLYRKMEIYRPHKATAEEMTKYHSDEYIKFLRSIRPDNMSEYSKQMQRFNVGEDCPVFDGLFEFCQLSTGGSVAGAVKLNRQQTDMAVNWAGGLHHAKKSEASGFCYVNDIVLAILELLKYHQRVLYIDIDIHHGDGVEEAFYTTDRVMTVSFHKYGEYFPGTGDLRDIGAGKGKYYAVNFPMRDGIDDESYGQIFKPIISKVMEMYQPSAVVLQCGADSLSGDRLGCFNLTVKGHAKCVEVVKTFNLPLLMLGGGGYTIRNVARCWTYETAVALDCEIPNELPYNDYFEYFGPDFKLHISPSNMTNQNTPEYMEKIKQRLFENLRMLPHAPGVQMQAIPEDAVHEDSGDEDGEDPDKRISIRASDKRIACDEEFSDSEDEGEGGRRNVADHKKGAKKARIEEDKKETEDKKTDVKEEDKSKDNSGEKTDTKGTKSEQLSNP

Sequence of Sirt6 (Q8N6T7 whole entry, species assumed): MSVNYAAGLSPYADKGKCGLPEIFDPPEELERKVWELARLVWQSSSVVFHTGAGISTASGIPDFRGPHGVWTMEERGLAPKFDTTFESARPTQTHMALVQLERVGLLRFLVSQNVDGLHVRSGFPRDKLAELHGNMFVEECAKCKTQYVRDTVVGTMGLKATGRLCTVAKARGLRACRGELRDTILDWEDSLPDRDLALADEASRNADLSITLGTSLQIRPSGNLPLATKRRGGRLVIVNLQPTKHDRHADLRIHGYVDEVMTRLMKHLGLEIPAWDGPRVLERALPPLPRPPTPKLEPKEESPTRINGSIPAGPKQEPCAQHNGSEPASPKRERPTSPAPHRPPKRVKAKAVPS
Sequence of HDAC4 (P56524 whole entry, species assumed): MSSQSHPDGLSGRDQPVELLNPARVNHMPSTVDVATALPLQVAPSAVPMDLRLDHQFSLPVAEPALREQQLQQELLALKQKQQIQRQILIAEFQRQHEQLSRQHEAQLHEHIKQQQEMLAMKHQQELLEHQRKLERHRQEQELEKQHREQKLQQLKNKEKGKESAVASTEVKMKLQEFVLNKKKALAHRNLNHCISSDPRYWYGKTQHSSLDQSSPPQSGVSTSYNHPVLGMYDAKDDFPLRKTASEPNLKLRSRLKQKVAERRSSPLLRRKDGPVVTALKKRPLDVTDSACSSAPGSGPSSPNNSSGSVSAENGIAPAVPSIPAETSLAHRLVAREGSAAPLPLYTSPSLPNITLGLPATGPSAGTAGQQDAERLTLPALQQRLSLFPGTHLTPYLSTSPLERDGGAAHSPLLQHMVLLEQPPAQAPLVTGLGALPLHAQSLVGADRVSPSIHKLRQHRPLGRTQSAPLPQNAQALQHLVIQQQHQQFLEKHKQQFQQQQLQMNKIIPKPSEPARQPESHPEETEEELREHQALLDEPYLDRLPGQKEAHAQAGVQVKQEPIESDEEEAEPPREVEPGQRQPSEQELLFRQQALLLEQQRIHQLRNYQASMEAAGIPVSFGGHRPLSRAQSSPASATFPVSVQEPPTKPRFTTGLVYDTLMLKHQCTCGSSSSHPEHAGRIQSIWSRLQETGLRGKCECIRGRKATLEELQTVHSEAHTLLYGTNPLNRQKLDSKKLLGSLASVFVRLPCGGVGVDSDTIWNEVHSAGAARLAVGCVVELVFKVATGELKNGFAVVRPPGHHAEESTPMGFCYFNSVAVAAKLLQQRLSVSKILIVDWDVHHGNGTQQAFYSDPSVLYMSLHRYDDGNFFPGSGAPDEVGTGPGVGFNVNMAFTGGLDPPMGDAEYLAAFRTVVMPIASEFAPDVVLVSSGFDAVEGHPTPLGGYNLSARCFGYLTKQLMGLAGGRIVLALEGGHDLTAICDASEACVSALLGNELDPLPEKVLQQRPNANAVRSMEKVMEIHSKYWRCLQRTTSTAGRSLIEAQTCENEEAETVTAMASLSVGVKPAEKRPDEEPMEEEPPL
Sequence of HDAC9 (Q9UKV0 whole entry, species assumed): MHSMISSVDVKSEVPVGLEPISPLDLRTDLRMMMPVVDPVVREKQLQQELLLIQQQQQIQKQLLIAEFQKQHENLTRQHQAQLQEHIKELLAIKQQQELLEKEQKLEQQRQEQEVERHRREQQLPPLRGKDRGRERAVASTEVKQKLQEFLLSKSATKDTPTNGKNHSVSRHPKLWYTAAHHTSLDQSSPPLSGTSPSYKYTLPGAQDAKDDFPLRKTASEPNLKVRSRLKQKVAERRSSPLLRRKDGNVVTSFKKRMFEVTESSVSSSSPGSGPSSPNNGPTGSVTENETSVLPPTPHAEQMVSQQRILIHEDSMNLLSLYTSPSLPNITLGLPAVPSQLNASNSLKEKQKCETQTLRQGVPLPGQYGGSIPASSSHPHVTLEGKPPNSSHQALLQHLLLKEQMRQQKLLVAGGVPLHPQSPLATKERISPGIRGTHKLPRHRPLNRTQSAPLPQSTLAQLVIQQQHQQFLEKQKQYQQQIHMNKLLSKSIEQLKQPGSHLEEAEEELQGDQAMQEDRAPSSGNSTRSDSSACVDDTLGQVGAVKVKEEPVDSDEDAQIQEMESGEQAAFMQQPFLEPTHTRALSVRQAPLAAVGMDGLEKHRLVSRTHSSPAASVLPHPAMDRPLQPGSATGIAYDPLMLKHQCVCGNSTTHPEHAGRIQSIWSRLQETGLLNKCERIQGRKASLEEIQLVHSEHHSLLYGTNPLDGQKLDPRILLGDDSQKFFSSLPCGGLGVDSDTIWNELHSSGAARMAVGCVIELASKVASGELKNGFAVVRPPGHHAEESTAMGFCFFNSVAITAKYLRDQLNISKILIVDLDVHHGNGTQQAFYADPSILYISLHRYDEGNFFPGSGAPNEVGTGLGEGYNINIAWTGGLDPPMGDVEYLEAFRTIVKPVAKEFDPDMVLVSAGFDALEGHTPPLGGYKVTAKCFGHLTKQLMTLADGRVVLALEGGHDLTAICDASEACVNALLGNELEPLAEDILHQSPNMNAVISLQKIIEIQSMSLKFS
Sequence of HDAC8 (Q9BY41 whole entry, species assumed): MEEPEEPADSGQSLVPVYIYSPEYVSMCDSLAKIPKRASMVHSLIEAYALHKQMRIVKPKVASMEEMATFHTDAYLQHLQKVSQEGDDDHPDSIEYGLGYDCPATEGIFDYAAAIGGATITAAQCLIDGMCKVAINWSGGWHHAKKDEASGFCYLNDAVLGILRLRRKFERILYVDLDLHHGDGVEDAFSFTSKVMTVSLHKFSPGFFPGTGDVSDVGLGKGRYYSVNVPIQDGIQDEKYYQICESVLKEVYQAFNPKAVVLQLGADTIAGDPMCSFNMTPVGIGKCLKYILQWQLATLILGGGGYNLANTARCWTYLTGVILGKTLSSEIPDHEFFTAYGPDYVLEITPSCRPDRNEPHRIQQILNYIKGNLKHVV
T2 sequence (O15379 whole entry): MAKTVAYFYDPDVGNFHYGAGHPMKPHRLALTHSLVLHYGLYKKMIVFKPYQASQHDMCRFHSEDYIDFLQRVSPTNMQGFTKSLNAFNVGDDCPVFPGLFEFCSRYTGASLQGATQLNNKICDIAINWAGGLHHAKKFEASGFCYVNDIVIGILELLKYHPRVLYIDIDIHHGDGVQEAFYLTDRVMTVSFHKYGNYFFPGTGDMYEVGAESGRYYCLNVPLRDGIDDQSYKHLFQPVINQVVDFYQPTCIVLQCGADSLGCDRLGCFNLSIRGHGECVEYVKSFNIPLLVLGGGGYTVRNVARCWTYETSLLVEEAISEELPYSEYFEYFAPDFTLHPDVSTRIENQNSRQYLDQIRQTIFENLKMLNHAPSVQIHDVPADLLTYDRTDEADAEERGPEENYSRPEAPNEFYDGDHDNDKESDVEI
T2 sequence (Q9Y618 395-489 partner limits assumed): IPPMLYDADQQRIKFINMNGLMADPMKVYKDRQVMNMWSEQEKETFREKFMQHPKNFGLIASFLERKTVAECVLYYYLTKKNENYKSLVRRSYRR

IC50 [1] [nM] | IC50 [2] [nM] | inhibition at 6 µM ([2]; @ 6 µM, read-out: HDAC9 percentual inhibition) [%] | inhibition at 20 µM ([2]; @ 20 μM, read-out: HDAC9 percentual inhibition) [%] | IC50 [3] [nM] | IC50 [4] [nM] | inhibition at 6 µM ([4]; @ 6 µM, read-out: HDAC7 percentual inhibition) [%] | inhibition at 20 µM ([4]; @ 20 μM, read-out: HDAC7 percentual inhibition) [%] | IC50 [5] [nM] | IC50 [6] [nM] | inhibition at 6 µM ([6]; @ 6 µM, read-out: HDAC10 percentual inhibition) [%] | inhibition at 20 µM ([6]; @ 20 μM, read-out: HDAC10 percentual inhibition) [%] | IC50 [7] [nM] | inhibition at 6 µM ([7]; @ 6 µM, read-out: HDAC4 percentual inhibition) [%] | inhibition at 20 µM ([7]; @ 20 μM, read-out: HDAC4 percentual inhibition) [%] | IC50 [8] [nM] | inhibition at 200 µM ([8]; @ 200 µM, read-out: Sirt6 percentual inhibition) [%] | inhibition at 500 µM ([8]; @ 500 µM, read-out: Sirt6 percentual inhibition) [%] | IC50 [9] [nM] | SMILES
200 |  |  |  |  |  |  |  |  |  |  |  |  |  |  |  |  |  |  | Cc1cc(C)nc(SCC(=O)Nc2ncc(Cc3cccc(OCc4cn(Cc5ccccc5)nn4)c3)s2)n1 [Compound 4, SirReal1.1, reference compound]
560 | > 20000 | 17 | 37 | 2500 ± 200 | > 6000 | 29 | 57 | 2940 ± 450 | > 6000 | 27 | 64 | > 20000 | 4 | 7 | > 500000 | 0 | 10 | 6000 ± 200 | CCCCN(Cc1ccc(C(=O)NO)cc1)C(=O)CCCCn1cc(COc2cccc(Cc3cnc(NC(=O)CSc4nc(C)cc(C)n4)s3)c2)nn1 [Compound 33, 4-((N-Butyl-5-(4-((3-((2-(2-((4,6-dimethylpyrimidin-2-yl)thio)acetamido)thiazol-5-yl)methyl)phenoxy)methyl)-1H-1,2,3-triazol-1-yl)pentanamido)methyl)-N-hydroxybenzamide]
